{"source": "paper PMC3609710", "about": "(Journal of chromatography. A, 2012)", "assay_type": "in vivo, mouse (C57Bl/6)", "conditions": "mouse serum, single IP injection of T1AM 25 mg/kg", "note": "Read-outs that look alike come from different tables or passages of the source.", "data": [{"smiles": "O=C(O)Cc1ccc(Oc2ccc(O)cc2)cc1", "note": "[TA0, thyroacetic acid]", "values": [{"measurement": "greatest serum concentration", "setting": "at 6 hours post-injection", "value": "0.77 ± 0.16", "unit": "µM"}]}, {"smiles": "O=C(O)Cc1ccc(Oc2ccc(O)cc2)c(I)c1", "note": "[TA1, 3-iodothyroacetic acid]", "values": [{"measurement": "serum concentration", "setting": "10 minutes post-injection", "value": "17.7 ± 4.6", "unit": "µM"}, {"measurement": "serum concentration", "setting": "20 minutes post-injection", "value": "23.5 ± 13.2", "unit": "µM"}]}, {"smiles": "NCCc1ccc(Oc2ccc(O)cc2)c(I)c1", "note": "[T1AM, 3-Iodothyronamine]", "values": [{"measurement": "serum concentration", "setting": "10 minutes post-injection", "value": "16.6 ± 8.5", "unit": "µM"}, {"measurement": "serum concentration", "setting": "20 minutes post-injection", "value": "5.6 ± 3.1", "unit": "µM"}]}]}
